Test results: PubChem BioAssay (NCI)
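Step 1: Grow cells in 96-well plates. Step 2: Expose to compound for 48 hours at 5 concentrations. Step 3: Interpolate endpoints linearly; if unreached, use highest concentration. GI50: concentration for 50% inhibition of growth. Definition used: TGI = concentration required for complete inhibition of growth.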

Columns and labels:
Experiment in all cases: growth of human tumour cells (NCI), 48 h
UO-31 renal = test system: UO-31 renal
CCRF-CEM leukemia = test system: CCRF-CEM leukemia
OVCAR-5 ovarian = test system: OVCAR-5 ovarian
KM12 colon = test system: KM12 colon
TK-10 renal = test system: TK-10 renal
OVCAR-3 ovarian = test system: OVCAR-3 ovarian
M14 melanoma = test system: M14 melanoma
SR leukemia = test system: SR leukemia
NCI-H522 lung = test system: NCI-H522 lung
HCT-116 colon = test system: HCT-116 colon

Row | Structure (SMILES) | GI50 (UO-31 renal) | TGI (UO-31 renal) | GI50 (CCRF-CEM leukemia) | TGI (CCRF-CEM leukemia) | GI50 (OVCAR-5 ovarian) | TGI (OVCAR-5 ovarian) | GI50 (KM12 colon) | TGI (KM12 colon) | GI50 (TK-10 renal) | TGI (TK-10 renal) | GI50 (OVCAR-3 ovarian) | TGI (OVCAR-3 ovarian) | GI50 (M14 melanoma) | TGI (M14 melanoma) | GI50 (SR leukemia) | TGI (SR leukemia) | GI50 (NCI-H522 lung) | TGI (NCI-H522 lung) | TGI (HCT-116 colon) | GI50 (HCT-116 colon)
1 | Nc1nc(Cl)cc2c1ncn2C1OC(CO)C(O)C1O (stereo not drawn) | > 100 µM | > 100 µM | > 100 µM | > 100 µM | > 100 µM | > 100 µM | > 100 µM | > 100 µM | > 100 µM | > 100 µM | > 100 µM | > 100 µM | > 100 µM | > 100 µM | > 100 µM | > 100 µM | > 100 µM | > 100 µM |  | 
2 | COC1=C(C(=O)OC(C)(C)C)C23CCCCC2(C(C(=O)OC(C)(C)C)=C(OC)C3C(=O)OC(C)(C)C)C1C(=O)OC(C)(C)C (stereo not drawn) |  | > 100 µM |  | > 100 µM |  | > 100 µM |  | > 100 µM |  | > 100 µM |  | > 100 µM |  | > 100 µM |  | > 100 µM |  | > 100 µM | > 100 µM | 
3 | COc1cc2c(cc1OC)[C@@H]1[C@H](C2=O)c2ccc([N+](=O)[O-])cc2C(=O)N1CCCBr |  |  | < 0.01 µM |  | 1.64 µM | > 100 µM | 0.406 µM | 4.6 µM | 1.28 µM | 41.1 µM |  | 0.748 µM | < 0.01 µM | 0.0139 µM | < 0.01 µM | 0.311 µM | 0.574 µM | 29.4 µM | 0.0133 µM | < 0.01 µM
4 | COc1ccc(NC(=O)CC(=O)n2nc(-c3ccccc3)c(N=Nc3ccc(C)cc3)c2-c2ccccc2)cc1 |  | 55.3 µM |  | > 100 µM |  | > 100 µM |  | > 100 µM |  | 55.1 µM |  | 77.2 µM |  | > 100 µM |  | 98.3 µM |  | 48.3 µM | > 71 µM | 
5 | O=C(N/C(=C\c1cc(Cl)ccc1Cl)c1nc2ccccc2[nH]1)c1ccccc1 |  | 62.7 µM |  | 88.3 µM |  | > 100 µM |  | 88.9 µM |  | > 100 µM |  | > 100 µM |  | 69.7 µM |  | 81.7 µM |  | > 100 µM |  | 
6 | O=C(NCCc1ccccc1)C(c1csc2ccccc12)N(C(=O)CCl)c1ccc(-c2cnco2)cc1 (stereo not drawn) | 0.0173 µM | 0.0354 µM | 0.0229 µM | 0.0594 µM | 0.682 µM | 2.07 µM | 0.291 µM | 0.898 µM | 1.75 µM | 3.21 µM | 0.156 µM | 0.828 µM | 1.38 µM | 2.83 µM | 0.0268 µM | 0.107 µM | 0.0134 µM | 0.0295 µM | 2.37 µM | 0.889 µM
7 | C[N+](C)(C)CC(=O)NC(=O)N/N=C\C(CC#N)CN(Cc1ccccc1)Cc1ccccc1 (stereo not drawn) |  | > 100 µM |  | > 100 µM |  | > 100 µM |  | > 100 µM |  | > 100 µM |  | > 100 µM |  | > 100 µM |  | > 100 µM |  | > 100 µM | > 100 µM | 
8 | COC(=O)C1=C(SC)SC2(C(=O)OC)C3C=C(C)C4C(N13)C42C(=O)OC (stereo not drawn) |  | > 100 µM |  | > 100 µM |  | > 100 µM |  |  |  | > 100 µM |  | > 100 µM |  | > 100 µM |  | > 100 µM |  | > 100 µM | > 100 µM | 
9 | COc1cccc(-n2cnc3c(N/N=C/c4ccncc4)ncnc32)c1 | 8.26 µM | > 25 µM | > 25 µM | > 25 µM | > 25 µM | > 25 µM | 7.84 µM | > 25 µM | 9.59 µM | > 25 µM | > 20.8 µM | > 25 µM | 10.3 µM | > 25 µM | 12.3 µM | > 25 µM | > 14.6 µM | > 25 µM | > 25 µM | 15.1 µM
10 | CC1=NN(C(=O)CC(=O)Nc2ccccc2)C(=O)C1N=Nc1ccc(S(N)(=O)=O)cc1 (stereo not drawn) |  | > 100 µM |  | > 100 µM |  | > 100 µM |  | > 100 µM |  | > 100 µM |  | > 100 µM |  | > 100 µM |  | > 100 µM |  | > 100 µM | > 100 µM | 
11 | COc1cc2c3c(c1OC)C1(C=CC(=O)C=C1)CC3N(C(=O)OC(C)(C)C(Cl)(Cl)Cl)CC2 (stereo not drawn) |  | 28.5 µM |  | 87.7 µM |  | 38.4 µM |  | 23.2 µM |  | > 100 µM |  | 20.7 µM |  | 28.8 µM |  | 23.4 µM |  | 23.2 µM | 19 µM | 
12 | NS(=O)(=O)OC[C@H]1O[C@@H](n2cnc3c(N[C@H]4CCc5ccccc54)ncnc32)[C@H](O)[C@@H]1O | 1.41 µM | 2.88 µM | 0.0419 µM | > 100 µM | 0.305 µM | 2.24 µM | 0.525 µM | 2.58 µM | 0.608 µM | 3.24 µM | 0.0409 µM | 0.145 µM | 0.226 µM | 2.35 µM | 0.0368 µM | > 52.6 µM | 0.0271 µM | 0.192 µM | 0.114 µM | 0.0213 µM
13 | COc1cc(C2C3=C(COC3=O)N(CCO)c3cc4c(cc32)OCCO4)cc(OC)c1O (stereo not drawn) | > 16.7 µM | > 50 µM | 1.84 µM | > 50 µM | 49.9 µM | > 50 µM | 1.5 µM | > 37 µM | 6.61 µM | > 50 µM | 0.947 µM | 2.29 µM | 1.43 µM | > 21 µM | 1.86 µM | > 50 µM | 0.182 µM | 2.8 µM | > 50 µM | 2.15 µM
14 | O=C1/C(=C/c2ccc(F)cc2)CN(Cc2cn(CCNc3ccnc4cc(Cl)ccc34)nn2)C/C1=C\c1ccc(F)cc1 | 1.37 µM | 2.7 µM | 1.05 µM | 4.65 µM | 1.92 µM | 3.71 µM | 0.328 µM | 1.19 µM | 1.85 µM | 3.45 µM | 1.24 µM | 2.5 µM | 1.92 µM | 3.74 µM | 0.333 µM | 1.66 µM | 1.67 µM | 3.16 µM | 0.721 µM | 0.258 µM
15 | Nc1ccc(Cl)cc1.Nc1ccc(Cl)cc1.Nc1ccc(Cl)cc1.O=C([O-])C(=O)[O-].O=C([O-])C(=O)[O-].[H+].[Ru+5] | 0.927 µM | > 26.8 µM | 0.176 µM | > 68 µM |  |  | 0.124 µM | 21.9 µM | 3.56 µM | > 100 µM | 1.1 µM | > 100 µM | > 100 µM | > 100 µM | 0.023 µM | > 100 µM |  | > 100 µM | > 100 µM | 
